pKi: −log10 of the molar value. Read-outs that look alike come from different tables or passages of the source.

Experimental findings from patent US12344614B2, “Benzodiazepine derivatives as GABA a GAMMA1 PAM” (Hoffmann-La Roche Inc., priority 2021, dated 2025) are described below.

Assay [1] concerns the target human GABAA α5β2γ1 receptor (Homo sapiens (Human), UniProt P31644+Q8N1C3). As to the kind of experiment: Radioligand binding assay, competition for [3H]RO7239181, membranes from HEK293F cells. The procedure: The affinity of compounds at GABAA γ1 subunit-containing receptors was measured by competition for [^3H]RO7239181 (67.3 Ci/mmol; Roche) binding to membranes from HEK293F cells (ThermoFisher R79007) expressing human (transiently transfected) receptors of composition α5β2γ1, α2β2γ1, α1β2γ1. For better protein expression of the α2 subunit-containing receptors, the 28 amino acid long signal peptide (Met1 to Ala28) of the human GABAA α2 subunit was substituted by the 31 amino acid long signal peptide (Met1 to Ser31) of human GABAA α5 subunit.
(§1) Harvested pellets from HEK293F cells expressing the different GABAA receptor subtypes were resuspended in Mannitol Buffer pH 7.2-7.4 (Mannitol 0.29M, Triethylamine 10 mM, Acetic acid 10 mM, EDTA 1 mM plus protease inhibitors (20 tablets Complete, Roche Diagnostics Cat. No. 05 056 489 001 per liter)), washed two times and then resuspended at 1:10 to 1:15 dilution in the same buffer. Cell disruption was performed by stirring the suspension in a Parr vessel #4637 at 435 psi for 15 minutes, and then the suspensions were centrifuged at 1000×g for 15 minutes at 4° C. (Beckman Avanti J-HC; rotor JS-4.2). The supernatant (S1) was transferred in a 21 Schott flask and the pellet (P1) was resuspended with Mannitol Buffer up to 175 ml. The resuspended pellet was transferred into a 250 ml Corning centrifugal beaker and centrifuged at 1500×g for 10 minutes at 4° C. (Beckman Avanti J-HC; rotor JS-4.2). The supernatant (S1) was then transferred in the 21 Schott flask and the pellet was discarded. The supernatants (S1) were centrifuged in 500 ml Beckman polypropylene centrifugal beaker at 15′000×g for 30 minutes at 4° C. (Beckman Avanti J-20 XP; rotor JLA-10.500). The pellet (P2) was resuspended with Mannitol Buffer 1:1 and frozen at −80° C. The supernatant (S2) was centrifuged in 100 ml Beckman polypropylene centrifugal tubes at 48000×g for 50 minutes at 4° C. (Beckman Avanti J-20 XP; rotor JA-18). The supernatant (S3) was discarded and the pellet (P3) was resuspended with 1:1 Mannitol Buffer. The P2 and P3 protein concentration was determined with the BIORAD Standard assay method with bovine serum albumin as standard and measured on the NANO-Drop 1000. The membrane suspension was aliquots (500 μl per tube) and stored at −80° C. until required.
(§2) Membrane homogenates were resuspended and polytronised (Polytron PT1200E Kinematica AG) in Potassium Phosphate 10 mM, KCl 100 mM binding buffer at pH 7.4 to a final assay concentration determined with a previous experiment.
Radioligand binding assays were carried out in a volume of 200 μL (96-well plates) which contained 100 μL of cell membranes, [^3H]RO7239181 at a concentration of 1.5 nM (α5β2γ1) or 20-30 nM (α1β2γ1, α2β2γ1) and the test compound in the range of [0.3-10000]×10^−9 M. Nonspecific binding was defined by 10×10^−6 (α5β2γ1) and 30×10^−6 M RO7239181 and typically represented less than 5% (α5β2γ1) and less than 20% (α1β2γ1, α2β2γ1) of the total binding. Assays were incubated to equilibrium for 1 hour at 4° C. and then, membranes were filtered onto unifilter (96-well white microplate with bonded GF/C filters preincubated 20-50 minutes in 0.3% Polyethylenimine) with a Filtermate 196 harvester (Packard BioScience) and washed 4 times with cold Potassium Phosphate 10 mM pH 7.4, KCl 100 mM binding buffer. After anhydrousing, filter-retained radioactivity was detected by liquid scintillation counting. Ki values were calculated using Excel-Fit (Microsoft) and are the means of two determinations.
Representative test results, obtained by the above described assay measuring binding affinity to HEK293 cells expressing human (h) receptors, are shown in the Table 1.

Assay [2] has as its target human GABAA α1β3γ2 receptor (Homo sapiens (Human), UniProt P14867+P18507). As to the kind of experiment: Radioligand binding assay, competition for [3H]Flumazenil, HEK293F cells. Conditions: for γ2/γ1 Selectivity Ratio: Ki α1β3γ2 (nM)/Ki α2β2γ1 (nM); for LogSel: Log[Ki α1β3γ2 (nM)/Ki α2β2γ1 (nM)]. The procedure: The affinity of compounds at GABAA γ2 subunit-containing receptors was measured by competition for [^3H]Flumazenil (81.1 Ci/mmol; Roche) binding to HEK293F cells expressing human (transiently transfected) receptors of composition α1β3γ2.
Harvested pellets from HEK293F cells expressing the different GABAA γ2 receptor subtypes were resuspended in Mannitol Buffer pH 7.2-7.4 and processed as described above for the cells expressing the GABAA γ1 subunit-containing receptors.
Assays were incubated to equilibrium for 1 hour at 4° C. and harvested onto GF/C uni-filters (Packard) by filtration using a Packard harvester and washing with ice-cold wash buffer (50 mM Tris; pH 7.5). After anhydrousing, filter-retained radioactivity was detected by liquid scintillation counting. Ki values were calculated using Excel-Fit (Microsoft) and are the means of two determinations.

The target in assay [3] is human GABAA α2β2γ1 receptor (Homo sapiens (Human), UniProt P47869+Q8N1C3). As to the kind of experiment: Radioligand binding assay, competition for [3H]RO7239181, membranes from HEK293F cells. The procedure:
The affinity of compounds at GABAA γ1 subunit-containing receptors was measured by competition for [^3H]RO7239181 (67.3 Ci/mmol; Roche) binding to membranes from HEK293F cells (ThermoFisher R79007) expressing human (transiently transfected) receptors of composition α5β2γ1, α2β2γ1, α1β2γ1.
as §1, §2
Assays were incubated to equilibrium for 1 hour at 4° C. and then, membranes were filtered onto unifilter (96-well white microplate with bonded GF/C filters preincubated 20-50 minutes in 0.3% Polyethylenimine) with a Filtermate 196 harvester (Packard BioScience) and washed 4 times with cold Potassium Phosphate 10 mM pH 7.4, KCl 100 mM binding buffer. After anhydrousing, filter-retained radioactivity was detected by liquid scintillation counting. Ki values were calculated using Excel-Fit (Microsoft) and are the means of two determinations.

Setting [4] is: read-out: Ki h-GABAA α2β2γ1, [3H]RO7239181 20-30 nM, HEK293F membranes, 1 hour at 4° C., mean of two determinations.

Broadly, the pKi is −log10 of the Ki, conventionally taken in molar units. `Cc1nnc2n1-c1ccc(C(F)(F)F)c(Cl)c1C(c1cc(O)ccc1F)=N[C@H]2C` [Example 17, 4-fluoro-3-[(4S)-7-chloro-1,4-dimethyl-8-(trifluoromethyl)-4H-[1,2,4]triazolo[4,3-a][1,4]benzodiazepin-6-yl]phenol]: the pKi is 9.00 in assay [1], 7.16 in assay [2], 8.76 in assay [3] and 8.76 in assay [3] (setting [4]). The “γ2/γ1 Selectivity Ratio” value in assay [2] came out at 39.3. This compound also had a LogSel in assay [2] of 1.59.
Turning to `Oc1ccc(F)c(C2=NCc3nncn3-c3ccc(C(F)(F)F)c(Cl)c32)c1` [Example 10, 3-[7-chloro-8-(trifluoromethyl)-4H-[1,2,4]triazolo[4,3-a][1,4]benzodiazepin-6-yl]-4-fluoro-phenol], the pKi in assay [1] is 9.57; in assay [2], 7.05; in assay [3], 8.98; in assay [3] (setting [4]), 8.98. In addition, the “γ2/γ1 Selectivity Ratio” value in assay [2] stood at 86.5. The same compound displayed a LogSel in assay [2] of 1.94.
Consider `CN1C(=O)CN=C(c2c(F)ccc(O)c2F)c2c1ccc(Cl)c2Cl` [Example 12, 6,7-dichloro-5-(2,6-difluoro-3-hydroxy-phenyl)-1-methyl-3H-1,4-benzodiazepin-2-one], for which the pKi in assay [1] is 9.34; in assay [2], 6.43; in assay [3] it was 8.67; in assay [3] (setting [4]), 8.67. Besides, the “γ2/γ1 Selectivity Ratio” value in assay [2] is listed as 175.4. In assay [2], this compound registered a LogSel of 2.24.
As for `Cc1nnc2n1-c1ccc(C(F)(F)F)c(Cl)c1C(c1cc(O)ccc1F)=NC2` [Example 9, 3-[7-chloro-1-methyl-8-(trifluoromethyl)-4H-[1,2,4]triazolo[4,3-a][1,4]benzodiazepin-6-yl]-4-fluoro-phenol], the pKi in assay [1] is 9.07; in assay [2], 6.98; in assay [3], 8.49; in assay [3] (setting [4]) it was 8.49. Further, the “γ2/γ1 Selectivity Ratio” value in assay [2] is given as 32.6. The compound also had a LogSel in assay [2] of 1.51.
As for `Cc1cnc2n1-c1ccc(C(F)(F)F)c(Cl)c1C(c1nc(O)ccc1Cl)=N[C@H]2C` [Example 26, 5-chloro-6-[(4S)-7-chloro-1,4-dimethyl-8-(trifluoromethyl)-4H-imidazo[1,2-a][1,4]benzodiazepin-6-yl]pyridin-2-ol], the pKi in assay [1] is 8.49; in assay [2], 5.17; in assay [3] it was 8.10; in assay [3] (setting [4]), 8.10. Also, the “γ2/γ1 Selectivity Ratio” value in assay [2] was 853.7. The same compound had a LogSel in assay [2] of 2.93.
Take `Cc1nnc2n1-c1ccc(Cl)c(Cl)c1C(c1cc(O)ccc1F)=NC2` [Example 3, 3-(7,8-dichloro-1-methyl-4H-[1,2,4]triazolo[4,3-a][1,4]benzodiazepin-6-yl)-4-fluoro-phenol]: the pKi in assay [1] is 9.44; in assay [2], 7.46; in assay [3], 8.84; in assay [3] (setting [4]), 8.84. Further, the “γ2/γ1 Selectivity Ratio” value in assay [2] turned out to be 23.7. In assay [2], this compound had a LogSel of 1.37.
Take `CN1C(=O)CN=C(c2cc(O)ccc2F)c2c1ccc(C(F)(F)F)c2Cl` [Example 8, 6-chloro-5-(2-fluoro-5-hydroxy-phenyl)-1-methyl-7-(trifluoromethyl)-3H-1,4-benzodiazepin-2-one]: the pKi in assay [1] was 9.36; in assay [2] it was 7.09; in assay [3] it was 8.63; in assay [3] (setting [4]), 8.63. Also, in assay [2], the “γ2/γ1 Selectivity Ratio” value came to 34.4. This compound came in with a LogSel in assay [2] of 1.54.
As to `C[C@@H]1N=C(c2c(F)ccc(O)c2F)c2c(ccc(Cl)c2Cl)-n2ccc(=O)nc21` [Example 18, (5S)-8,9-dichloro-7-(2,6-difluoro-3-hydroxy-phenyl)-5-methyl-5H-pyrimido[1,2-a][1,4]benzodiazepin-3-one], the pKi in assay [1] is 8.89; in assay [2] it was 6.59; in assay [3], 8.18; in assay [3] (setting [4]), 8.18. For the same compound, in assay [2], the “γ2/γ1 Selectivity Ratio” value came to 38.7. The compound also came in with a LogSel in assay [2] of 1.59.
Consider `Cc1nnc2n1-c1ccc(Cl)c(Cl)c1C(c1c(F)ccc(O)c1F)=NC2` [Example 13, 3-(7,8-dichloro-1-methyl-4H-[1,2,4]triazolo[4,3-a][1,4]benzodiazepin-6-yl)-2,4-difluoro-phenol], for which the pKi in assay [1] was 9.40; in assay [2], 7.14; in assay [3], 8.41; in assay [3] (setting [4]) it was 8.41. Also, the “γ2/γ1 Selectivity Ratio” value in assay [2] is on record as 18.8. The compound also registered a LogSel in assay [2] of 1.28.
For `O=c1ccn2c(n1)CN=C(c1cc(O)ccc1F)c1c-2ccc(Cl)c1Cl` [Example 6, 8,9-dichloro-7-(2-fluoro-5-hydroxy-phenyl)-5H-pyrimido[1,2-a][1,4]benzodiazepin-3-one], the pKi in assay [1] is 9.41; in assay [2], 7.33; in assay [3], 8.66; in assay [3] (setting [4]), 8.66. Also, the “γ2/γ1 Selectivity Ratio” value in assay [2] turned out to be 21.4. The compound also registered a LogSel in assay [2] of 1.33.
For `Cc1nc2n(n1)-c1ccc(C(F)(F)F)c(Cl)c1C(c1nc(O)ccc1F)=N[C@H]2C` [Example 25, 6-[(4S)-7-chloro-2,4-dimethyl-8-(trifluoromethyl)-4H-[1,2,4]triazolo[1,5-a][1,4]benzodiazepin-6-yl]-5-fluoro-pyridin-2-ol], the pKi in assay [1] was 8.63; in assay [2] it was 4.97; in assay [3] it was 7.96; in assay [3] (setting [4]) it was 7.96. Also, in assay [2], the “γ2/γ1 Selectivity Ratio” value worked out at 977.2. This compound yielded a LogSel in assay [2] of 2.99.
Consider `C[C@@H]1N=C(c2nc(O)ccc2F)c2c(ccc(C(F)(F)F)c2Cl)-n2c1nc1c2CCC1` [Example 24, 6-[(10S)-6-chloro-10-methyl-5-(trifluoromethyl)-1,9,12-triazatetracyclo[9.6.0.02,7.013,17]heptadeca-2(7),3,5,8,11,13(17)-hexaen-8-yl]-5-fluoro-pyridin-2-ol], for which the pKi in assay [1] is 8.07; in assay [2] it was 5.38; in assay [3], 8.18; in assay [3] (setting [4]), 8.18. Moreover, in assay [2], the “γ2/γ1 Selectivity Ratio” value is given as 634.3. Besides, the LogSel in assay [2] is 2.80.
